Where “and” joins values, the source holds several entries; their conditions need not be identical. Equal entries are not always repeated.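 Interpolation was linear, between the two tested concentrations surrounding the appropriate level; five concentrations were tested over 48 hours in 96-well plates. Here, GI50 denotes the concentration required for 50% inhibition of growth. TGI: concentration producing complete growth inhibition.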
Key:
Test in all cases: inhibition of tumour cell growth, NCI panel, 48 h
MDA-MB-231 breast = tested on: MDA-MB-231 breast
MDA-MB-435 = tested on: MDA-MB-435
DMS 273 small cell lung = tested on: DMS 273 small cell lung
XF 498 CNS = tested on: XF 498 CNS
DLD-1 colon = tested on: DLD-1 colon
LXFL 529 NSCLC = tested on: LXFL 529 NSCLC
KM20L2 colon = tested on: KM20L2 colon
RXF-631 renal = tested on: RXF-631 renal
MDA-N = tested on: MDA-N

Row | SMILES | GI50 (MDA-MB-231 breast) | TGI (MDA-MB-231 breast) | GI50 (MDA-MB-435) | TGI (MDA-MB-435) | TGI (DMS 273 small cell lung) [µM] | TGI (XF 498 CNS) [µM] | TGI (DLD-1 colon) [µM] | TGI (LXFL 529 NSCLC) [µM] | TGI (KM20L2 colon) [µM] | other results
1 | CCCOC(=O)N[C@H]1CCc2c(Br)c(OC)c(OC)c(OC)c2-c2ccc(SC)c(=O)cc21 | 35.9 nM | 6.45 µM | < 10 nM | 0.0189 µM | – | – | – | – | – | –
2 | COc1ccc(/C=C2/CN(C(=O)c3ccccc3F)C/C(=C\c3ccc(OC)cc3)C2=O)cc1 | 2880 nM | 9.04 µM | 2480 nM | 9.93 µM | – | – | – | – | – | –
3 | O=[N+]([O-])c1ccccc1S(=O)c1ccccc1 (stereo not drawn) | – | – | – | – | > 100 | > 100 | > 100 | > 100 | – | –
4 | O=C(c1ccccc1)c1ccc(-c2ccc(O)cc2)cc1 | 6080 nM | 37.6 µM | 328 nM | 1.55 µM | – | – | – | – | – | –
5 | COc1ccc2c(c1)O/C(=C\c1cccc(OCC(=O)Nc3nc4ccccc4s3)c1)C2=O | 7350 nM | > 23.1 µM | 14200 nM | > 100 µM | – | – | – | – | – | –
6 | CC1(C)CCC(S(=O)(=O)c2ccc3c(c2)/C(=N\O)c2cc(S(=O)(=O)N4CCC(O)(c5cccc(C(F)(F)F)c5)CC4)ccc2-3)CC1 | 21.7 nM | 0.0438 µM | 28.3 nM | 0.122 µM | – | – | – | – | – | –
7 | CN(C(=O)c1ccc(F)cc1C(F)(F)F)C1CCN(c2nnc(-c3ccnn3C)c3ccccc23)CC1 | 37800 nM | > 100 µM | 26600 nM | > 100 µM | – | – | – | – | – | –
8 | O=C(CC12CC3CC(CC(C3)C1)C2)NCCOCCOCCNC(=O)c1cc2c(o1)C(=O)c1ccccc1C2=O | 1530 nM | 5.68 µM | 185 nM | 0.343 µM | – | – | – | – | – | –
9 | COc1ccc(C(CC(=O)c2ccccc2)C(C(=O)c2ccccc2)C(c2ccc(OC)cc2)C2C(=O)NC(=O)NC2=O)cc1 (stereo not drawn) | 2240 nM | 16.2 µM | 19600 nM | > 100 µM | – | – | – | – | – | –
10 | O=C1Nc2ccc(F)c3c(OCCO)cc(-c4ccc[nH]4)c1c23 | 2030 nM | 9.53 µM | 1460 nM | 14.1 µM | – | – | – | – | – | –
11 | Nc1nc2ncn(CCO)c2c(=O)[nH]1 | – | – | – | – | > 100 | > 100 | > 100 | > 100 | > 100 | –
12 | CN(C)CCC1(C2=CCCC2)CC/C(=C\c2ccc3c(c2)OCO3)C1=O (stereo not drawn) | – | – | – | – | – | – | 38.3 | 25.5 | 28.6 | TGI (RXF-631 renal): 38.7 µM
13 | Cc1oc2ccccc2c(=O)c1Cn1nnc2ccccc21 | – | > 100 µM | – | > 100 µM | – | – | – | – | – | TGI (MDA-N): > 100 µM
14 | O=S(=O)(Nc1ccc(-c2nc(-c3cccc(OCCN4CCOCC4)c3)c(-c3ccnc(Br)c3)[nH]2)cc1)c1ccccc1 | 3230 nM | 63.6 µM | 2930 nM | > 100 µM | – | – | – | – | – | –
15 | Cn1ncc2c(Nc3ccc(Br)cc3)nc(Nc3ccc(Br)cc3)nc21 | 1800 nM | 3.68 µM | 2860 nM | 10.7 µM | – | – | – | – | – | –
16 | CS(=O)(=O)c1nccc(-c2c(-c3cccc(OCc4ccc(F)cc4)c3)nc3sccn23)n1 | 34300 nM | > 100 µM | 30300 nM | > 100 µM | – | – | – | – | – | –
17 | COc1ccc(CNc2cc(OC)cc(OC)c2)cc1 | – | – | – | – | > 100 | > 100 | > 100 | > 100 | > 100 | GI50 (DMS 273 small cell lung): > 100 µM and 42.3 µM; GI50 (KM20L2 colon): > 100 µM and 49 µM; GI50 (DLD-1 colon): 97.7 µM and 42.6 µM

Row | SMILES | GI50 (MDA-MB-231 breast) | TGI (MDA-MB-231 breast) | GI50 (MDA-MB-435) | TGI (MDA-MB-435) | TGI (DMS 273 small cell lung) [µM] | TGI (XF 498 CNS) [µM] | TGI (DLD-1 colon) [µM] | TGI (LXFL 529 NSCLC) [µM] | TGI (KM20L2 colon) [µM] | other results
18 | O=S(=O)(c1cccc(C(F)(F)F)c1)N1c2ccccc2-n2cccc2C1c1cccnc1 (stereo not drawn) | – | > 54.5 µM | – | > 42.2 µM | – | – | – | – | – | TGI (MDA-N): > 100 µM
19 | CN(C)CCNC(=O)c1ccc2ccc3cccnc3c2n1 | – | – | – | – | 22.6 | – | > 84.4 | > 100 | 72 | –
20 | O=c1cc2n(c(=O)[nH]1)C1OC(C(O)C1O)[C@@H]2CCO (stereo partly drawn) | – | – | – | – | > 100 | – | > 100 | > 100 | > 100 | –
21 | CS(=O)(=O)NNS(=O)(=O)c1ccc(Br)cc1 | – | – | – | – | > 100 | > 100 | > 100 | > 100 | > 100 | –
22 | CCCC[C@@H]1NC(=O)[C@H](CCCCN)NC(=O)[C@H](CCCNC(=N)N)NC(=O)[C@H](CC(C)C)NC(=O)[C@@H](NC(=O)[C@H](Cc2cccc(Cl)c2)NC(=O)[C@@H]2CCCN2C(=O)[C@@H](NC(C)=O)C(C)C)CCSSC[C@@H](C(=O)N[C@@H](CCCCN)C(=O)N2CCC[C@H]2C(=O)N2CCC[C@H]2C(=O)N[C@@H](CCC(=O)O)C(N)=O)NC(=O)[C@H](Cc2ccccc2)NC(=O)[C@H](CO)NC(=O)[C@H](C)NC(=O)[C@@H]2CCCN2C1=O | > 50000 nM | > 50 µM | > 50000 nM | > 50 µM | – | – | – | – | – | –
23 | O=CC1=CCCC2(C1)OCCO2 | – | – | – | – | > 100 | > 100 | > 100 | > 100 | – | TGI (RXF-631 renal): > 100 µM
24 | CC(=O)O[C@]1(C(C)=O)CC[C@H]2[C@@H]3C[C@H](C)C4=CC(=O)C=C[C@]4(C)[C@@]3(F)[C@@H](O)C[C@@]21C | – | – | – | – | > 100 | > 100 | > 100 | – | > 100 | –
25 | CC1=CC[C@@H]2[C@@H](CC[C@@]2(C)O)C(C)(C)[C@H]1CC[C@@H]1[C@@]2(C)CCC(=O)C(C)(C)O[C@@H]2CC[C@]1(C)O | – | > 100 µM | – | > 100 µM | – | – | – | – | – | TGI (MDA-N): 57 µM
26 | O=c1/c(=C/c2cccc3ccccc23)sc2nc3ccccc3n12 | – | – | – | – | > 100 | – | > 100 | > 100 | > 100 | TGI (RXF-631 renal): > 100 µM
27 | O=C1OCC(c2ccc(O)c(O)c2)=C1c1cc(O)c(O)c(O)c1 | 15200 nM | 31 µM | 17000 nM | 32.5 µM | – | – | – | – | – | –
28 | OCCN1CCN(CCCN2c3ccccc3Sc3ccc(C(F)(F)F)cc32)CC1 | 1200 nM and 8870 nM and 5680 nM | 5.07 µM and 22.8 µM and 18.1 µM | 1140 nM and 3540 nM and 2440 nM | 3 µM and 14 µM and 7.42 µM | – | – | – | – | – | –
29 | C[C@@H]1O[C@@H](O[C@H]2C[C@@H](O)[C@]3(CO)C4C(CC[C@]3(O)C2)[C@@]2(O)CC[C@H](C3=CC(=O)OC3)[C@@]2(C)C[C@H]4O)[C@H](O)[C@H](O)[C@H]1O (stereo partly drawn) | 111 nM | 0.286 µM | 59.5 nM | 0.134 µM | – | – | – | – | – | –
30 | N=C(N)/N=C(/C=C/c1ccccc1)CC1OC(=O)c2ccccc21 (stereo not drawn) | – | – | – | – | > 100 | > 100 | > 100 | > 100 | > 100 | –
31 | COc1ccc(CC(=O)c2cc(OC)c(OC)cc2C)cc1OC | – | – | – | – | – | > 100 | > 100 | > 100 | > 100 | –
32 | Cc1cccc(C)c1NC(=O)CCC(=O)NNC(=O)c1cc(O)c2ccccc2c1 | – | – | – | – | – | > 100 | > 100 | > 100 | > 100 | –
33 | N#C/C(=C\c1ccc(CP(=O)(O)O)cc1)C(N)=O | – | – | – | – | > 100 | > 100 | > 100 | > 100 | > 100 | –
34 | CCCCCCC1CCC2CCCC(C)N12 (stereo not drawn) | – | – | – | – | > 100 | 36.1 | – | > 10 | > 100 | –

Reference: PubChem BioAssay (NCI)
